Data from US20110288033A1, “Disulfide Compounds for Phototherapy” (Mallinckrodt Inc., priority 2010, published 2011).

Tests used:
[1] = test system: human myeloid leukemia U937 cell line; assay type: cell-based; settings: 0, 2.5, 5 and 10 μM; light 0, 10, 20 minutes
Procedure: A general procedure is carried out for measuring cell viability upon exposure of cancer cells to a disulfide photosensitizer and light. The disulfide photosensitizer evaluated is a commercially available compound having formula (FX13): […]
Compound (FX13) was purchased from Sigma-Aldrich (Cat #158194). […] Preparation of compound (FX13) is known and can be found, for example, in Rath, C. Derivatives of pyridine. XII. Mercaptans and sulfonic acids of pyridine. Justus Liebigs Annalen der Chemie 1931, 487, 105-119, which is hereby incorporated by reference. Some properties of compound (FX13) are known and can be found, for example, in Grassetti, D. R.; Brokke, M. E.; Murray, J. F., Jr. The effect of some sulfur-containing pyridine derivatives on the carbohydrate metabolism of ehrlich ascites tumor. J. Med. Chem. 1965, 8, 753-756, which is hereby incorporated by reference. The cell viability analysis is carried out using a human myeloid leukemia U937 cell line by the standard WST-1 assay. […]
The disulfide photosensitizer is dissolved in DMSO at an initial concentration of about 8 mM and diluted with water to the final desired value such that amount of DMSO exposed to the cells is kept […]. […] The viability of cells is assessed after 24 hours following light exposure. […] The number of viable cells is determined and percent viability is determined: […]

UV spectrum in DMSO = assay type: physicochemical

SMILES: O=[N+]([O-])c1ccc(SSc2ccc([N+](=O)[O-])cn2)nc1 [FX13]
- change in cell viability with photosensitizer and light (FIG. 5) [1]: concentration-dependent and light exposure time-dependent decrease in cell viability
- absorption λmax (UV spectrum in DMSO): 323 nm
